Data: the supplement of paper PMC10307832

Tests used:
Assay in all cases: relative viability (nuclei count vs DMSO), 5 days (fraction); higher = more cells survive
[1] = compound: C[C@@H](C(=O)N[C@@H](C1CCCCC1)C(=O)N2CCC[C@H]2C(=O)N[C@@H]3[C@@H](CC4=CC=CC=C34)OCC#CC#CCO[C@@H]5CC6=CC=CC=C6[C@@H]5NC(=O)[C@@H]7CCCN7C(=O)[C@H](C8CCCCC8)NC(=O)[C@H](C)NC)NC [AZD5582] + CC1(C)CCC(c2ccc(Cl)cc2)=C(CN2CCN(c3ccc(C(=O)NS(=O)(=O)c4ccc(N[C@H](CCN5CCOCC5)CSc5ccccc5)c(S(=O)(=O)C(F)(F)F)c4)cc3)CC2)C1 [Navitoclax] (partner 0.5 µM)
Summary of the method: (§1)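 Lung cancer cell lines were seeded in 1536-well plates and dosed by pin tool the next day, with either a single drug or a fixed anchor-drug dose combined with five library-drug doses (not always all listed) spaced in √10 steps. Five days later, one step fixed the cells and stained their nuclei (final 0.05% Triton X-100, 1% formaldehyde, 1 ug/ml Hoechst), and nuclei were counted on 4× images. Relative viability is the nuclei count in treated wells divided by the count in vehicle wells, and each value is the median of duplicate plates.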

[2] = compound: C[C@@H](C(=O)N[C@@H](C1CCCCC1)C(=O)N2CCC[C@H]2C(=O)N[C@@H]3[C@@H](CC4=CC=CC=C34)OCC#CC#CCO[C@@H]5CC6=CC=CC=C6[C@@H]5NC(=O)[C@@H]7CCCN7C(=O)[C@H](C8CCCCC8)NC(=O)[C@H](C)NC)NC [AZD5582] + C[C@]1(O)C[C@@H](c2nc(-c3ccc4ccc(-c5ccccc5)nc4c3)c3c(N)nccn32)C1 [Linsitinib] (partner 1 µM)
Summary of the method: as §1

[3] = compound: C[C@@H](C(=O)N[C@@H](C1CCCCC1)C(=O)N2CCC[C@H]2C(=O)N[C@@H]3[C@@H](CC4=CC=CC=C34)OCC#CC#CCO[C@@H]5CC6=CC=CC=C6[C@@H]5NC(=O)[C@@H]7CCCN7C(=O)[C@H](C8CCCCC8)NC(=O)[C@H](C)NC)NC [AZD5582] + CC(=O)c1c(C)c2cnc(Nc3ccc(N4CCNCC4)cn3)nc2n(C2CCCC2)c1=O [Palbociclib] (partner 0.5 µM)
Summary of the method: as §1

[4] = compound: C[C@@H](C(=O)N[C@@H](C1CCCCC1)C(=O)N2CCC[C@H]2C(=O)N[C@@H]3[C@@H](CC4=CC=CC=C34)OCC#CC#CCO[C@@H]5CC6=CC=CC=C6[C@@H]5NC(=O)[C@@H]7CCCN7C(=O)[C@H](C8CCCCC8)NC(=O)[C@H](C)NC)NC [AZD5582] + Cc1nc(Nc2ncc(C(=O)Nc3c(C)cccc3Cl)s2)cc(N2CCN(CCO)CC2)n1 [Dasatinib] (partner 0.075 µM)
Summary of the method: as §1

[5] = compound: C[C@@H](C(=O)N[C@@H](C1CCCCC1)C(=O)N2CCC[C@H]2C(=O)N[C@@H]3[C@@H](CC4=CC=CC=C34)OCC#CC#CCO[C@@H]5CC6=CC=CC=C6[C@@H]5NC(=O)[C@@H]7CCCN7C(=O)[C@H](C8CCCCC8)NC(=O)[C@H](C)NC)NC [AZD5582] + CC(=O)Nc1cccc(-n2c(=O)n(C3CC3)c(=O)c3c(Nc4ccc(I)cc4F)n(C)c(=O)c(C)c32)c1 [Trametinib] (partner 0.02 µM)
Summary of the method: as §1

NCI-H1915
relative viability ([1]; first compound 0.001581 µM): 0.777 | relative viability ([1]; first compound 0.005 µM): 0.757 | relative viability ([1]; first compound 0.01581 µM): 0.793 | relative viability ([1]; first compound 0.05 µM): 0.746 | relative viability ([2]; first compound 0.001581 µM): 1.08 | relative viability ([2]; first compound 0.005 µM): 1.13 | relative viability ([2]; first compound 0.01581 µM): 1.11 | relative viability ([2]; first compound 0.05 µM): 0.905 | relative viability ([3]; first compound 0.001581 µM): 0.521 | relative viability ([3]; first compound 0.005 µM): 0.536 | relative viability ([3]; first compound 0.01581 µM): 0.502 | relative viability ([3]; first compound 0.05 µM): 0.544 | relative viability ([4]; first compound 0.001581 µM): 0.324 | relative viability ([4]; first compound 0.005 µM): 0.339 | relative viability ([4]; first compound 0.01581 µM): 0.267 | relative viability ([4]; first compound 0.05 µM): 0.328 | relative viability ([5]; first compound 0.001581 µM): 0.309 | relative viability ([5]; first compound 0.005 µM): 0.294 | relative viability ([5]; first compound 0.01581 µM): 0.296 | relative viability ([5]; first compound 0.05 µM): 0.373

PC-14
relative viability ([1]; first compound 0.001581 µM): 1.06 | relative viability ([1]; first compound 0.005 µM): 0.967 | relative viability ([1]; first compound 0.01581 µM): 0.969 | relative viability ([1]; first compound 0.05 µM): 1.11 | relative viability ([2]; first compound 0.001581 µM): 0.895 | relative viability ([2]; first compound 0.005 µM): 1.02 | relative viability ([2]; first compound 0.01581 µM): 0.902 | relative viability ([2]; first compound 0.05 µM): 0.958 | relative viability ([3]; first compound 0.001581 µM): 0.401 | relative viability ([3]; first compound 0.005 µM): 0.322 | relative viability ([3]; first compound 0.01581 µM): 0.47 | relative viability ([3]; first compound 0.05 µM): 0.34 | relative viability ([4]; first compound 0.001581 µM): 0.258 | relative viability ([4]; first compound 0.005 µM): 0.302 | relative viability ([4]; first compound 0.01581 µM): 0.219 | relative viability ([4]; first compound 0.05 µM): 0.257 | relative viability ([5]; first compound 0.001581 µM): 0.404 | relative viability ([5]; first compound 0.005 µM): 0.44 | relative viability ([5]; first compound 0.01581 µM): 0.722 | relative viability ([5]; first compound 0.05 µM): 0.397

LCLC-97TM1
relative viability ([1]; first compound 0.005 µM): 0.329 | relative viability ([1]; first compound 0.01581 µM): 0.347 | relative viability ([1]; first compound 0.05 µM): 0.32 | relative viability ([2]; first compound 0.005 µM): 0.16 | relative viability ([2]; first compound 0.01581 µM): 0.191 | relative viability ([2]; first compound 0.05 µM): 0.148 | relative viability ([3]; first compound 0.001581 µM): 0.172 | relative viability ([3]; first compound 0.005 µM): 0.282 | relative viability ([3]; first compound 0.01581 µM): 0.24 | relative viability ([3]; first compound 0.05 µM): 0.165 | relative viability ([4]; first compound 0.001581 µM): 0.748 | relative viability ([4]; first compound 0.005 µM): 0.91 | relative viability ([4]; first compound 0.01581 µM): 0.768 | relative viability ([4]; first compound 0.05 µM): 0.825 | relative viability ([5]; first compound 0.001581 µM): 0.203 | relative viability ([5]; first compound 0.005 µM): 0.25 | relative viability ([5]; first compound 0.01581 µM): 0.184 | relative viability ([5]; first compound 0.05 µM): 0.189

LU99A
relative viability ([1]; first compound 0.001581 µM): 0.882 | relative viability ([1]; first compound 0.005 µM): 0.998 | relative viability ([1]; first compound 0.01581 µM): 0.805 | relative viability ([1]; first compound 0.05 µM): 0.976 | relative viability ([2]; first compound 0.001581 µM): 0.575 | relative viability ([2]; first compound 0.005 µM): 0.622 | relative viability ([2]; first compound 0.01581 µM): 0.525 | relative viability ([2]; first compound 0.05 µM): 0.752 | relative viability ([3]; first compound 0.001581 µM): 0.455 | relative viability ([3]; first compound 0.005 µM): 0.465 | relative viability ([3]; first compound 0.01581 µM): 0.412 | relative viability ([3]; first compound 0.05 µM): 0.534 | relative viability ([4]; first compound 0.001581 µM): 0.443 | relative viability ([4]; first compound 0.005 µM): 0.608 | relative viability ([4]; first compound 0.01581 µM): 0.537 | relative viability ([4]; first compound 0.05 µM): 0.483 | relative viability ([5]; first compound 0.001581 µM): 0.575 | relative viability ([5]; first compound 0.005 µM): 0.68 | relative viability ([5]; first compound 0.01581 µM): 0.534 | relative viability ([5]; first compound 0.05 µM): 0.617

HCC-366
relative viability ([1]; first compound 0.001581 µM): 1.05 | relative viability ([1]; first compound 0.005 µM): 0.925 | relative viability ([1]; first compound 0.01581 µM): 0.998 | relative viability ([1]; first compound 0.05 µM): 1.07 | relative viability ([2]; first compound 0.001581 µM): 0.7 | relative viability ([2]; first compound 0.005 µM): 0.754 | relative viability ([2]; first compound 0.01581 µM): 0.622 | relative viability ([2]; first compound 0.05 µM): 0.822 | relative viability ([3]; first compound 0.001581 µM): 0.347 | relative viability ([3]; first compound 0.005 µM): 0.319 | relative viability ([3]; first compound 0.01581 µM): 0.322 | relative viability ([3]; first compound 0.05 µM): 0.43 | relative viability ([4]; first compound 0.001581 µM): 0.614 | relative viability ([4]; first compound 0.005 µM): 0.658 | relative viability ([4]; first compound 0.05 µM): 0.647 | relative viability ([5]; first compound 0.001581 µM): 0.304 | relative viability ([5]; first compound 0.005 µM): 0.339 | relative viability ([5]; first compound 0.01581 µM): 0.413 | relative viability ([5]; first compound 0.05 µM): 0.458

NCI-H1395
relative viability ([1]; first compound 0.001581 µM): 1.02 | relative viability ([1]; first compound 0.005 µM): 1.16 | relative viability ([1]; first compound 0.05 µM): 1.49 | relative viability ([2]; first compound 0.001581 µM): 1.05 | relative viability ([2]; first compound 0.005 µM): 1.03 | relative viability ([2]; first compound 0.05 µM): 1.11 | relative viability ([3]; first compound 0.001581 µM): 0.578 | relative viability ([3]; first compound 0.005 µM): 0.688 | relative viability ([3]; first compound 0.05 µM): 0.76 | relative viability ([4]; first compound 0.001581 µM): 0.437 | relative viability ([4]; first compound 0.005 µM): 0.458 | relative viability ([4]; first compound 0.01581 µM): 0.354 | relative viability ([4]; first compound 0.05 µM): 0.46 | relative viability ([5]; first compound 0.001581 µM): 0.961 | relative viability ([5]; first compound 0.005 µM): 1.22 | relative viability ([5]; first compound 0.05 µM): 1.28

HOP-62
relative viability ([1]; first compound 0.001581 µM): 0.945 | relative viability ([1]; first compound 0.005 µM): 0.917 | relative viability ([1]; first compound 0.01581 µM): 1.08 | relative viability ([1]; first compound 0.05 µM): 1.14 | relative viability ([2]; first compound 0.001581 µM): 0.654 | relative viability ([2]; first compound 0.005 µM): 1 | relative viability ([2]; first compound 0.01581 µM): 0.966 | relative viability ([2]; first compound 0.05 µM): 1.09 | relative viability ([3]; first compound 0.001581 µM): 0.297 | relative viability ([3]; first compound 0.005 µM): 0.46 | relative viability ([3]; first compound 0.01581 µM): 0.453 | relative viability ([3]; first compound 0.05 µM): 0.379 | relative viability ([4]; first compound 0.001581 µM): 0.657 | relative viability ([4]; first compound 0.005 µM): 0.797 | relative viability ([4]; first compound 0.01581 µM): 0.506 | relative viability ([4]; first compound 0.05 µM): 0.689 | relative viability ([5]; first compound 0.001581 µM): 0.407 | relative viability ([5]; first compound 0.005 µM): 0.456 | relative viability ([5]; first compound 0.01581 µM): 0.418 | relative viability ([5]; first compound 0.05 µM): 0.446

NCI-H322M
relative viability ([1]; first compound 0.001581 µM): 1.15 | relative viability ([1]; first compound 0.005 µM): 1.32 | relative viability ([1]; first compound 0.01581 µM): 1.14 | relative viability ([1]; first compound 0.05 µM): 1.4 | relative viability ([2]; first compound 0.001581 µM): 0.871 | relative viability ([2]; first compound 0.005 µM): 1.13 | relative viability ([2]; first compound 0.01581 µM): 0.887 | relative viability ([2]; first compound 0.05 µM): 1.02 | relative viability ([3]; first compound 0.001581 µM): 0.526 | relative viability ([3]; first compound 0.005 µM): 0.521 | relative viability ([3]; first compound 0.01581 µM): 0.456 | relative viability ([3]; first compound 0.05 µM): 0.605 | relative viability ([4]; first compound 0.001581 µM): 0.314 | relative viability ([4]; first compound 0.005 µM): 0.285 | relative viability ([4]; first compound 0.05 µM): 0.269 | relative viability ([5]; first compound 0.001581 µM): 0.561 | relative viability ([5]; first compound 0.005 µM): 0.62 | relative viability ([5]; first compound 0.01581 µM): 0.496 | relative viability ([5]; first compound 0.05 µM): 0.68
